Assays:
[1] = Solubility studies in USPII dissolution apparatus; assay type: physicochemical
Procedure: Solubility experiments were performed in USPII dissolution apparatus operated at 150 r.p.m., at 25° C., in the following media: 250 ml of 0.01N HC1-0.3M KCI (pH 2)
Procedure: 625 mg of pioglitazone hydrochloride was added in 250 ml of media and solubility was determined at given time points.

[2] = Clarity of solution in acidic media on standing; assay type: physicochemical
[3] = 1.5 hrs, 625 mg in 250 ml of 0.01N HCl-0.3M KCl (pH 2), 25° C., 150 r.p.m., average of six unit data, Hydrochloride
[4] = 5 hrs, 625 mg in 250 ml of 0.01N HCl-0.3M KCl (pH 2), 25° C., 150 r.p.m., average of six unit data, Hydrochloride
[5] = 20 hrs, 625 mg in 250 ml of 0.01N HCl-0.3M KCl (pH 2), 25° C., 150 r.p.m., average of six unit data, Hydrochloride
[6] = 0.01N HCl-0.3M KCl media (pH 2)

Substance	Solubility [1, 3]	Solubility [1, 4]	Solubility [1, 5]	further results
Pioglitazone Hydrochloride [Example 4]	2265 µg/mL	722 µg/mL	473 µg/mL	Observation of the media (turbidity, precipitation) ([1]; 0.01N HCl-0.3M KCl (pH 2), later time points): the media starts becoming turbid and shows drug precipitation on later time points
Pioglitazone Hydrochloride [Example 5]	2587 µg/mL	2766 µg/mL	2747 µg/mL	Solubility [1, 6]: more than 2.4 mg/ml; Standing time without precipitation from the solution [1, 6]: more than 5 hours; Solubility ([1]; 30 min, 625 mg in 250 ml of 0.01N HCl-0.3M KCl (pH 2), 25° C., 150 r.p.m., average of six unit data): 2719 µg/mL
pioglitazone hydrochloride [listing 1 of 2 here]	–	–	–	Standing time over which the solution remains clear [2]: ≥ 20 h
pioglitazone hydrochloride [listing 2 of 2 here]	–	–	–	Standing time after which the solution becomes turbid and the drug precipitates ([2]; initially clear solution): 4 to 5 h

From patent publication US20070078170A1, “Process for the preparation of pioglitazone” (priority 2003, published 2007)
